Reference: ChEMBL document CHEMBL1914411, “Synthesis of lipophilic dimeric C-7/C-7-linked ciprofloxacin and C-6/C-6-linked levofloxacin derivatives. Versatile in vitro biological evaluations of monomeric and dimeric fluoroquinolone derivatives as potential antitumor, antibacterial or antimycobacterial agents” (Eur J Med Chem, 2011)
In brackets after ≈: the same amount, converted by molar mass. Activity calls are given as the source filed them.

What was measured:
Staphylococcus aureus [1] = test: Antimicrobial activity against methicillin-resistant Staphylococcus aureus ATCC 33591 after 18 to 24 hrs by broth microdilution method; format: functional
Pseudomonas aeruginosa = test: Antimicrobial activity against Pseudomonas aeruginosa CIP 82.118 after 18 to 24 hrs by broth microdilution method; format: functional
[2] = tested on: Mycobacterium tuberculosis; test: Antimycobacterial activity against Mycobacterium tuberculosis H37Rv assessed as growth inhibition at 0.1 uM after 6 days by MTT colorimetric microassay; format: functional, organism-based
Staphylococcus aureus [3] = test: Antimicrobial activity against multidrug-resistant Staphylococcus aureus isolate 2 after 18 to 24 hrs by broth microdilution method; format: functional
Enterococcus hirae = test: Antimicrobial activity against Enterococcus hirae CIP 5855 after 18 to 24 hrs by broth microdilution method; format: functional
Staphylococcus aureus [4] = test: Antimicrobial activity against methicillin-resistant Staphylococcus aureus ATCC 33592 after 18 to 24 hrs by broth microdilution method; format: functional
Staphylococcus aureus [5] = test: Antimicrobial activity against multidrug-resistant Staphylococcus aureus isolate 1 after 18 to 24 hrs by broth microdilution method; format: functional
Escherichia coli = test: Antimicrobial activity against Escherichia coli CIP 53126 after 18 to 24 hrs by broth microdilution method; format: functional
Staphylococcus aureus [6] = test: Antimicrobial activity against Staphylococcus aureus CIP 4.83 after 18 to 24 hrs by broth microdilution method; format: functional
[7] = tested on: Mycobacterium tuberculosis; test: Antimycobacterial activity against Mycobacterium tuberculosis H37Rv assessed as growth inhibition at 10 uM after 6 days by MTT colorimetric microassay; format: functional; settings: for inhibition of growth at 10 µM: 144 h, read-out: GI

Compound	MBC (Staphylococcus aureus [1]) [µM]	MIC (Staphylococcus aureus [1]) [µM]	MBC (Pseudomonas aeruginosa) [µM]	MIC (Pseudomonas aeruginosa) [µM]	growth inhibition (GI) [2]	MBC (Staphylococcus aureus [3]) [µM]	MIC (Staphylococcus aureus [3]) [µM]	MBC (Enterococcus hirae) [µM]	MIC (Enterococcus hirae) [µM]	MBC (Staphylococcus aureus [4]) [µM]	MIC (Staphylococcus aureus [4]) [µM]	MBC (Staphylococcus aureus [5]) [µM]	MIC (Staphylococcus aureus [5]) [µM]	MBC (Escherichia coli) [µM]	MIC (Escherichia coli) [µM]	MBC (Staphylococcus aureus [6]) [µM]	MIC (Staphylococcus aureus [6]) [µM]	inhibition of growth at 10 µM [7] [%]	growth inhibition (GI) [7]
O=C(CCCCCCCCCCCCCCC(=O)OCN1CCN(c2cc3c(cc2F)c(=O)c(C(=O)O)cn3C2CC2)CC1)OCN1CCN(c2cc3c(cc2F)c(=O)c(C(=O)O)cn3C2CC2)CC1	15.6 (≈ 15.2 µg/mL)	7.8 (≈ 7.59 µg/mL)	250 (≈ 243 µg/mL)	62.5 (≈ 60.8 µg/mL)	inactive	500 (≈ 487 µg/mL)	125 (≈ 122 µg/mL)	62.5 (≈ 60.8 µg/mL)	31.2 (≈ 30.4 µg/mL)	1.9 (≈ 1.85 µg/mL)	0.97 (≈ 0.944 µg/mL)	500 (≈ 487 µg/mL)	125 (≈ 122 µg/mL)	15.6 (≈ 15.2 µg/mL)	7.8 (≈ 7.59 µg/mL)	≤ 0.97	≤ 0.97	–	–
CCCCCCCCCCCCNC(=O)c1cn2c3c(c(N4CCN(C)CC4)c(F)cc3c1=O)OC[C@@H]2C	–	–	250 (≈ 132 µg/mL)	62.5 (≈ 33 µg/mL)	inactive	–	–	3.9 (≈ 2.06 µg/mL)	3.9 (≈ 2.06 µg/mL)	–	–	–	–	500 (≈ 264 µg/mL)	125 (≈ 66.1 µg/mL)	15.6 (≈ 8.25 µg/mL)	3.9 (≈ 2.06 µg/mL)	> 95	–
CCCCCCCCCCCCCC(=O)OCC(=O)N1CCN(c2cc3c(cc2F)c(=O)c(C(=O)O)cn3C2CC2)CC1	–	–	250 (≈ 150 µg/mL)	125 (≈ 75 µg/mL)	inactive	–	–	31.2 (≈ 18.7 µg/mL)	31.2 (≈ 18.7 µg/mL)	–	–	–	–	500 (≈ 300 µg/mL)	125 (≈ 75 µg/mL)	7.8 (≈ 4.68 µg/mL)	7.8 (≈ 4.68 µg/mL)	> 95	–
CC(=O)OCC(=O)N1CCN(c2cc3c(cc2F)c(=O)c(C(=O)O)cn3C2CC2)CC1	3.9 (≈ 1.68 µg/mL)	3.9 (≈ 1.68 µg/mL)	250 (≈ 108 µg/mL)	62.5 (≈ 27 µg/mL)	inactive	125 (≈ 53.9 µg/mL)	125 (≈ 53.9 µg/mL)	15.6 (≈ 6.73 µg/mL)	15.6 (≈ 6.73 µg/mL)	1.9 (≈ 0.82 µg/mL)	0.97 (≈ 0.418 µg/mL)	500 (≈ 216 µg/mL)	125 (≈ 53.9 µg/mL)	15.6 (≈ 6.73 µg/mL)	7.8 (≈ 3.37 µg/mL)	≤ 0.97	≤ 0.97	–	–
O=C(O)c1cn(C2CC2)c2cc(N3CCN(C(=O)COCc4ccccc4)CC3)c(F)cc2c1=O	0.97 (≈ 0.465 µg/mL)	0.48 (≈ 0.23 µg/mL)	250 (≈ 120 µg/mL)	15.6 (≈ 7.48 µg/mL)	inactive	125 (≈ 59.9 µg/mL)	62.5 (≈ 30 µg/mL)	7.8 (≈ 3.74 µg/mL)	7.8 (≈ 3.74 µg/mL)	0.97 (≈ 0.465 µg/mL)	0.24 (≈ 0.115 µg/mL)	500 (≈ 240 µg/mL)	125 (≈ 59.9 µg/mL)	1.9 (≈ 0.911 µg/mL)	≤ 0.97	≤ 0.24	≤ 0.12	–	–
O=C(O)c1cn(C2CC2)c2cc(N3CCN(C(=O)CCCCCCCCCCCCCCCCC(=O)N4CCN(c5cc6c(cc5F)c(=O)c(C(=O)O)cn6C5CC5)CC4)CC3)c(F)cc2c1=O	–	–	250 (≈ 235 µg/mL)	125 (≈ 118 µg/mL)	inactive	–	–	500 (≈ 471 µg/mL)	125 (≈ 118 µg/mL)	–	–	–	–	500 (≈ 471 µg/mL)	125 (≈ 118 µg/mL)	500 (≈ 471 µg/mL)	125 (≈ 118 µg/mL)	–	inactive
O=C(O)c1cn(C2CC2)c2cc(N3CCN(C(=O)CCCCCCCCCCC(=O)N4CCN(c5cc6c(cc5F)c(=O)c(C(=O)O)cn6C5CC5)CC4)CC3)c(F)cc2c1=O	3.9 (≈ 3.34 µg/mL)	0.48 (≈ 0.411 µg/mL)	250 (≈ 214 µg/mL)	62.5 (≈ 53.6 µg/mL)	inactive	500 (≈ 428 µg/mL)	125 (≈ 107 µg/mL)	500 (≈ 428 µg/mL)	125 (≈ 107 µg/mL)	1.9 (≈ 1.63 µg/mL)	0.12 (≈ 0.103 µg/mL)	500 (≈ 428 µg/mL)	125 (≈ 107 µg/mL)	62.5 (≈ 53.6 µg/mL)	62.5 (≈ 53.6 µg/mL)	≤ 0.97	≤ 0.12	–	–
CCCCC(=O)N1CCN(c2cc3c(cc2F)c(=O)c(C(=O)O)cn3C2CC2)CC1	0.48 (≈ 0.199 µg/mL)	0.48 (≈ 0.199 µg/mL)	250 (≈ 104 µg/mL)	62.5 (≈ 26 µg/mL)	inactive	31.2 (≈ 13 µg/mL)	31.2 (≈ 13 µg/mL)	7.8 (≈ 3.24 µg/mL)	7.8 (≈ 3.24 µg/mL)	0.48 (≈ 0.199 µg/mL)	0.24 (≈ 0.0997 µg/mL)	500 (≈ 208 µg/mL)	62.5 (≈ 26 µg/mL)	15.6 (≈ 6.48 µg/mL)	7.8 (≈ 3.24 µg/mL)	≤ 0.48	≤ 0.24	–	–
CCCCCC(=O)OCOC(=O)c1cn2c3c(c(N4CCN(C)CC4)c(F)cc3c1=O)OC[C@@H]2C	–	–	–	–	inactive	–	–	–	–	–	–	–	–	–	–	–	–	> 95	–
